In US20210196714A1, “COMPOSITIONS AND METHODS FOR TREATING DISORDERS CHARACTERIZED WITH ABERRANT RAS/MAPK SIGNALING” (Duke University, priority 2018, published 2021):
“Also recorded” adds a separate entry of the source.

Test system: kmt2d+/−×kmt2d+/− progeny
Test: Brain cell proliferation in stable kmt2d mutant intercross progeny
Assay type: in vivo, zebrafish
Conditions: 100 mM dmDf, 2 dpf
Source text: FIG. 12: Treatment with dmDf rescues the defects of stable kmt2d mutant. kmt2d+/− adults were in-crossed and the embryos were then collected at 1 dpf, 2 dpf and 5 dpf to assess dmDf efficacy. […] Error bars show SEM (standard error of the mean).
Although the small molecule testing data in CRISPR F0 mosaic models are consistent with morphant phenotypes (and rescue), experiments recognized the necessity of testing the potential efficacy of dmDf in a stable genetic model that is a better genotypic proxy to human patients. […] In addition to examining proliferation of cells in the brain, experiments assessed whether neural differentiation is affected (see, Van Laarhoven, P. M. et al. Hum Mol Genet 24, 4443-53 (2015)).
For convergence and extension (CE) phenotyping, embryos were scored as described (see, Leitch, C. C. et al. Nat Genet 40, 443-8 (2008)) at the 8-10 somite stage, and images were captured using an AZ100 microscope and NIS Elements software (Nikon). […] The distance between Meckel's (MK) and ceratohyal (CH) cartilages was measured on ventral bright field images with Image J (NIH). […] Fluorescence signal on embryo heads was imaged with the Nikon AZ100 microscope and DS-Qi1MC digital camera using […] Z-stacks to generate extended depth of focus images. Cell numbers were quantified using the ImageJ ICTN plugin (NIH). […]

CC(C)c1nc(-c2cccc(NS(=O)(=O)c3c(F)cccc3F)c2F)c(-c2ccnc(N)n2)s1 [Compound 8, desmethyl-Dabrafenib]
number of proliferating cells in the brain: increases significantly; also recorded: rescued
